# Results: patent US20220370440A1 (Lead Discovery Center GmbH, priority 2018, published 2022)
# Assays:
# EGFR wt = EGFR wt (Homo sapiens, UniProt P00533); test: EGFR wt Lance assay; type: biochemical
# Protocol: (§1) Inhibition is indicated as […] [nM] (“−”=not measured). Compounds having an activity designated as “A” provided an IC50≤100 nM; compounds having an activity designated as “B” provided an 100 nM<IC50≤500 nM; compounds having an activity designated as “C” provided an 500 nM<IC50≤1000 nM; compounds having an activity designated as “D” provided an 1000 nM<IC50≤100000 nM; and compounds having an activity designated as “E” provided an IC50>10000 nM.
# [1] = target: Her2 Exon 20 INSYVMA Ba/F3 (Homo sapiens, UniProt P04626, DUP772-775, cells depend on it); test: Her2 Exon 20 INSYVMA Ba/F3 CellTiter-Glo; type: cell-based; conditions: CellTiter-Glo, 72 h, read-out: Her2 Exon 20 INSYVMA Ba/F3 CTG IC50
# Outline: (§2)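 Ba/F3 cells dependent on the mutant kinase, seeded and grown 24 h, then treated with compound for 72 h at 37 °C, 5% CO2. Viability by CellTiter-Glo ATP luminescence versus DMSO and 10 μM staurosporine controls; IC50 from dose-response fit, plates accepted at Z′ ≥0.5; bins A ≤100 nM to E >10000 nM.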
# [2] = target: EGFR Exon 20 INSNPH Ba/F3 (Homo sapiens, UniProt P00533, DUP771-773, cells depend on it); test: EGFR Exon 20 INSNPH Ba/F3 CellTiter-Glo; type: cell-based; conditions: CellTiter-Glo, 72 h, read-out: EGFR Exon 20 INSNPH Ba/F3 CTG IC50
# Outline: as §2
# A431 = A431 CellTiter-Glo; type: cell-based; conditions: Homo sapiens, A-431; 72 h compound incubation; read-out: A431 CTG IC50
# Outline: (§3)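 Luminescence from cellular ATP serves as the viability signal after cells are treated with compound dilutions for 72 h at 37° C. IC50 is derived by curve fitting, with DMSO-treated and 10 μM Staurosporine-treated wells defining the assay window.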
# HER2 INS YVMA = target: T1, HER2 INS YVMA (Homo sapiens, UniProt P04626, INS775YVMA); test: Lance Kinase Activity Assay, HER2 INS YVMA (Her2 Exon 20 INSYVMA Lance); type: biochemical; conditions: biochemical Lance assay
# T1 construct: purchased DPF
# Outline: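 Kinase phosphorylates a ULight-labelled peptide substrate; Eu anti-phospho antibody gives TR-FRET (ex 340 nm, em 665/615 nm). Compounds in 1:3 serial dilution over 8 steps, reaction started with ATP, 1 h at room temperature, stopped with EDTA-containing detection mix for 1 h. IC50 from sigmoidal dose-response curves.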
# [3] = Metabolic stability in mouse liver microsomes without cofactor NADPH; type: in vitro ADME; conditions: 3 μM test compound, mouse liver microsomes, without NADPH, 50 min, 37° C., LC-MS/MS
# Outline: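 Test compound (3 μM) was incubated with mouse liver microsomes without NADPH at 37° C. Depletion was followed by LC-MS/MS over time up to 50 min.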
# H1975 = H1975 CellTiter-Glo; type: cell-based; conditions: Homo sapiens, NCI-H1975; 72 h compound incubation; read-out: H1975 CTG IC50
# Outline: as §3
# H1781 = H1781 CellTiter-Glo; type: cell-based; conditions: NCI-H1781; 72 h compound incubation; read-out: H1781 CTG IC50
# Protocol: 2. Measurement of Cellular Activity
# The CellTiter-Glo Luminescent Cell Viability Assay (Promega) is a homogeneous method of determining the number of viable cells in culture. It is based on quantification of ATP, indicating the presence of metabolically active cells. Cells are seeded on day 1 at cell numbers that assure assay linearity and optimal signal intensity. After incubation for 24 h in humidified chambers at 37° C. and 5% CO2, compounds in DMSO are added at different concentrations. Cells are further incubated for 72 h at 37° C. and 5% CO2. Cells treated with the compound vehicle DMSO are used as positive controls and cells treated with 10 μM Staurosporine serve as negative controls. At day 5 the CellTiter Glo Reagent is prepared according to the instructions of the kit (Promega Inc.): Reagent is mixed 1:1 with cell culture medium. Thereon, mixture and assay plates are equilibrated at room temperature for 20 min. Equal volumes of the reagent-medium-mixture is added to the volume of culture medium present in each well. The plates are mixed at ˜200 rpm for 2 minutes on an orbital shaker. The microplates are then incubated at room temperature for 10 minutes for stabilization of the luminescent signal. Following incubation the luminescence is recorded on a Victor microplate reader (Perkin Elmer) using a 200 ms integration time. The data is then analyzed with Excel using the XLFIT Plugin (dose response Fit 205) for IC50-determination. As quality control the Z′-factor is calculated from 16 positive and negative control values. Only assay results showing a Z′-factor ≥0.5 are used for further analysis.
# as §1
# EGFR T790ML858R = EGFR T790ML858R (Homo sapiens, UniProt P00533, L858R/T790M); test: EGFR T790ML858R Lance assay; type: biochemical
# Protocol: as §1
# Sequence of Her2 Exon 20 INSYVMA Ba/F3 (P04626 with tags, fused parts or gaps DUP772-775): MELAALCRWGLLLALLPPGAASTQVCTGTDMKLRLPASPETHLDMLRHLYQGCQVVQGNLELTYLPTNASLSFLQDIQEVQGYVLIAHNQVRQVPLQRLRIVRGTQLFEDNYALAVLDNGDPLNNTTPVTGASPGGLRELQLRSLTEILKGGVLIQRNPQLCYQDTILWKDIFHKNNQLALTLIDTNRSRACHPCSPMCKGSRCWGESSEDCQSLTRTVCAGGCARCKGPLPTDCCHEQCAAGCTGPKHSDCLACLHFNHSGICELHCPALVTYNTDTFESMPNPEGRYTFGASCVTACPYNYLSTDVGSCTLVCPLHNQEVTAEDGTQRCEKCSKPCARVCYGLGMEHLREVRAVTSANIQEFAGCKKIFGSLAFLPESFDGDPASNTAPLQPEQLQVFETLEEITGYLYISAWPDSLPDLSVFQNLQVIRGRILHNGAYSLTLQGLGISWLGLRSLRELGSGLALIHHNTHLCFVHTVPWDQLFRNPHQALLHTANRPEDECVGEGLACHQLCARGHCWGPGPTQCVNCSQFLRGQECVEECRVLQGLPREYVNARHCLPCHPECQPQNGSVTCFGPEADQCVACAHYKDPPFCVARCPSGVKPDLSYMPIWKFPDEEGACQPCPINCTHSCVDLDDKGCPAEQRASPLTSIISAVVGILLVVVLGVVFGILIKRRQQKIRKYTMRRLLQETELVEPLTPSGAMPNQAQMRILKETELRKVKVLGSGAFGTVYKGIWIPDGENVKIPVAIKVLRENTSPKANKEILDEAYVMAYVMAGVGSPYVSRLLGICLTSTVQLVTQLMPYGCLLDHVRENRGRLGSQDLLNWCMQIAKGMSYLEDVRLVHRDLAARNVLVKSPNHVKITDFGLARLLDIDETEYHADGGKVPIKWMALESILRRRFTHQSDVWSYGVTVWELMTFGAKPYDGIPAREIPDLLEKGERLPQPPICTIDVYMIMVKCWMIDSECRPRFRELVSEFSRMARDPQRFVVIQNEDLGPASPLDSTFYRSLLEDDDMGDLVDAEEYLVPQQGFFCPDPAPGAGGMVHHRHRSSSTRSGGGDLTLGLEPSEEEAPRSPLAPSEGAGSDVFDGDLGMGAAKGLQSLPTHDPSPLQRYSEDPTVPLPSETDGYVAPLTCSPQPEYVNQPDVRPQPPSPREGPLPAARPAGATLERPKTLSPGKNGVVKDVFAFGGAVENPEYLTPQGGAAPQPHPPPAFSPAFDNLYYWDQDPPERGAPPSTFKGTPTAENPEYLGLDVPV
# Sequence of EGFR Exon 20 INSNPH Ba/F3 (P00533 with tags, fused parts or gaps DUP771-773): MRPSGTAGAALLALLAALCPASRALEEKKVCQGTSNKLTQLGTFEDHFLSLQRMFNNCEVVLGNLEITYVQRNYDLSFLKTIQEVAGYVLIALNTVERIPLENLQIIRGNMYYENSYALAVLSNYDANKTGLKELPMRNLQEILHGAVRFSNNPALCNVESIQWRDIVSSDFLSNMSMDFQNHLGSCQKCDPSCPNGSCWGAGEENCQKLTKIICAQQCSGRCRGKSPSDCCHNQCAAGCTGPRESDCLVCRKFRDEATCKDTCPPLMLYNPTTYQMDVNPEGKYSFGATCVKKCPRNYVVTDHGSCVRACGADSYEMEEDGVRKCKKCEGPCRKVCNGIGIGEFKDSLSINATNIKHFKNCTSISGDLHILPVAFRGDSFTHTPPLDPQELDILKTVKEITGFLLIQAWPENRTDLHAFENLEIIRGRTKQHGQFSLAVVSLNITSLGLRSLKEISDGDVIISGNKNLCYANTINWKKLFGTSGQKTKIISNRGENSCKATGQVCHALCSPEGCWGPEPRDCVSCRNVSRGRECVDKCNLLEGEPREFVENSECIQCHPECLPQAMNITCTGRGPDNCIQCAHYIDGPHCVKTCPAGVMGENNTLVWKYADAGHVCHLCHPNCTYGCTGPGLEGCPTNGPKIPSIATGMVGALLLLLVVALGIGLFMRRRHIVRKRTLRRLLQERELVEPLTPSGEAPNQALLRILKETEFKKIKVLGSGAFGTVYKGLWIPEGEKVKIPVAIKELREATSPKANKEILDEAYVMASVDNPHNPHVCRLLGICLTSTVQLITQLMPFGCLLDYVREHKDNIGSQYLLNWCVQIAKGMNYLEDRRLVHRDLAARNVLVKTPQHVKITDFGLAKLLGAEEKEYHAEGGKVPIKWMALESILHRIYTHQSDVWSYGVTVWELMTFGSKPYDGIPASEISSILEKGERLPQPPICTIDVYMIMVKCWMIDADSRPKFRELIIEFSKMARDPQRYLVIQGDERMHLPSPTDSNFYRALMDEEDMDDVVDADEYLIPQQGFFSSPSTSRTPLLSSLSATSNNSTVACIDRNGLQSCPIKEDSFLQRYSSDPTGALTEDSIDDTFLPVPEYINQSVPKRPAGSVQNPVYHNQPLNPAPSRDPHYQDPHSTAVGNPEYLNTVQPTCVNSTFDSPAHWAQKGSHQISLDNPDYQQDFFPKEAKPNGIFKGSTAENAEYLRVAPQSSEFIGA
# Sequence of EGFR wt (P00533 25-1210): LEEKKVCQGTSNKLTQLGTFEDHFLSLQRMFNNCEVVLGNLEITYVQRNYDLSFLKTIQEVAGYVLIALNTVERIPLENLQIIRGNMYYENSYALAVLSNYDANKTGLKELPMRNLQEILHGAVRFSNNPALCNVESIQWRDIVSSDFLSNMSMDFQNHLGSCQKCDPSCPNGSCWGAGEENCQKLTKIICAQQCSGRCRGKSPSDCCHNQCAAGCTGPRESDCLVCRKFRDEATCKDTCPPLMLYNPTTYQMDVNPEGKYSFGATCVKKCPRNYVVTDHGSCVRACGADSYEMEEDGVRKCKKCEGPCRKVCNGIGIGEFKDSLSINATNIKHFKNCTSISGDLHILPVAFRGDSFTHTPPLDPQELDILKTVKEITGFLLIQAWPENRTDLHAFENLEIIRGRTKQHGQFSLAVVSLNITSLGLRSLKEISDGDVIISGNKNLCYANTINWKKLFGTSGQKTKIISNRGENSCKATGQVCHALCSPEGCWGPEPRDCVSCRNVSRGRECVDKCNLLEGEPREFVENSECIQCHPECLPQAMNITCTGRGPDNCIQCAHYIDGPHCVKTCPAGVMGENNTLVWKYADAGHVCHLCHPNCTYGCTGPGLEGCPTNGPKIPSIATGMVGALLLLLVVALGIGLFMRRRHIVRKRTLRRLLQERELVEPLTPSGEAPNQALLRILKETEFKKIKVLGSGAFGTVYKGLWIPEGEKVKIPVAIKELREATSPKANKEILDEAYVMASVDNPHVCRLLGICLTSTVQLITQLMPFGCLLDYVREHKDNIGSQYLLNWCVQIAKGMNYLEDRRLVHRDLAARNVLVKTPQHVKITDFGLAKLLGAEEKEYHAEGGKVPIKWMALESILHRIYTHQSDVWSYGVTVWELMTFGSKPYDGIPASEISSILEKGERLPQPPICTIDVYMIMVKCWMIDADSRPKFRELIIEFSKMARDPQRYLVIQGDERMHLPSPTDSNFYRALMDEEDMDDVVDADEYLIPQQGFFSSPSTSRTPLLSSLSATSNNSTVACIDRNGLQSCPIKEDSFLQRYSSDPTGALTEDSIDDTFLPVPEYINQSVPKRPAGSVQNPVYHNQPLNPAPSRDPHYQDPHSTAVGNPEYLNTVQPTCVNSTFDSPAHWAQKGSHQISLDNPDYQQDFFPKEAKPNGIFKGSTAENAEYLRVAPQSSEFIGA
# Sequence of EGFR T790ML858R (P00533 25-1210 T790M/L858R): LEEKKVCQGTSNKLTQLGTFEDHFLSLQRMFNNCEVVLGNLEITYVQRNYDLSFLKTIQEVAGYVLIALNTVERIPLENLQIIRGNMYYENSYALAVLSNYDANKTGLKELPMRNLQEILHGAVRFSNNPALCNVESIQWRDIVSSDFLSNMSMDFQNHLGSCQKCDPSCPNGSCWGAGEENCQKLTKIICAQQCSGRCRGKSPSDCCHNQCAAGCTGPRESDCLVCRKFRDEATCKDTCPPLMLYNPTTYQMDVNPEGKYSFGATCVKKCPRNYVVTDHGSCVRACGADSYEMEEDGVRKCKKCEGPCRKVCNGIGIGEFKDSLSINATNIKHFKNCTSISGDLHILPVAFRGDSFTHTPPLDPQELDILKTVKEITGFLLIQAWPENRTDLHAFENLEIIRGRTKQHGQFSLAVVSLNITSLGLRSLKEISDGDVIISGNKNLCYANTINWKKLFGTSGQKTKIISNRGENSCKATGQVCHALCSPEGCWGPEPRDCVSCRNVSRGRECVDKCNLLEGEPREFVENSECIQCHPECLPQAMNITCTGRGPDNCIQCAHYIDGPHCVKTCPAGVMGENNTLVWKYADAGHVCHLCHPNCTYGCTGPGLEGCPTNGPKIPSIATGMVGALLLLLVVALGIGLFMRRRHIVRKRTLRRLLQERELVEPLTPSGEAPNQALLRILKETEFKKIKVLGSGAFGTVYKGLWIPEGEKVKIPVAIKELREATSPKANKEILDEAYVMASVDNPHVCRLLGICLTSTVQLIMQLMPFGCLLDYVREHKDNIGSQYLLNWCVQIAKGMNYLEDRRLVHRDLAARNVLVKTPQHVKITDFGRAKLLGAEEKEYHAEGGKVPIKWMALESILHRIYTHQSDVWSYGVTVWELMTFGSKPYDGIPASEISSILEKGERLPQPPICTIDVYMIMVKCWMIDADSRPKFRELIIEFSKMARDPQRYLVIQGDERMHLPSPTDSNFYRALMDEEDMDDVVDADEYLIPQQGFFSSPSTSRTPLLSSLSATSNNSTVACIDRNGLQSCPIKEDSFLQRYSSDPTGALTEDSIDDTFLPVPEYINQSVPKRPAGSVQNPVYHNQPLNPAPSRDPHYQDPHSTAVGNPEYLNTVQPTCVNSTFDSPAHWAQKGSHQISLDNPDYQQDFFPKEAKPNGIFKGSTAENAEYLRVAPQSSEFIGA
IC50 (EGFR wt),GI50 [1],GI50 [2],IC50 (A431),IC50 (HER2 INS YVMA),Stability in presence of mouse liver microsomes without cofactor NADPH [% remaining after 50 min] [3],IC50 (H1975),IC50 (H1781),IC50 (EGFR T790ML858R),SMILES
≤ 0.1 µM,0.1 to 0.5 µM,0.1 to 0.5 µM,0.1 to 0.5 µM,≤ 0.1 µM,>99 % remaining after 50 min,≤ 0.1 µM,0.5 to 1 µM,≤ 0.1 µM,"C=CC(=O)Nc1cc(-c2c(-c3ccc(C4CCN(C)CC4)cc3)[nH]c3ncccc23)ccc1C [Example 79, N-(2-methyl-5-(2-(4-(1-methylpiperidin-4-yl)phenyl)-1H-pyrrolo[2,3-b]pyridin-3-yl)phenyl)acrylamide]"
≤ 0.1 µM,0.1 to 0.5 µM,0.1 to 0.5 µM,0.1 to 0.5 µM,≤ 0.1 µM,>99 % remaining after 50 min,≤ 0.1 µM,0.1 to 0.5 µM,≤ 0.1 µM,"C=CC(=O)Nc1cc(-c2c(-c3ccc(N4CCN(C(C)=O)CC4)cc3)[nH]c3nccc(Cl)c23)ccc1C [Example 8, N-(5-(2-(4-(4-acetylpiperazin-1-yl)phenyl)-4-chloro-1H-pyrrolo[2,3-b]pyridin-3-yl)-2-methylphenyl)acrylamide]"
≤ 0.1 µM,0.1 to 0.5 µM,0.1 to 0.5 µM,0.5 to 1 µM,≤ 0.1 µM,>99 % remaining after 50 min,≤ 0.1 µM,0.5 to 1 µM,≤ 0.1 µM,"C=CC(=O)Nc1cc(-c2c(-c3cccc(CN4CCN(C)CC4)c3)[nH]c3nccc(OC)c23)ccc1C [Example 76, N-(5-(4-methoxy-2-(3-((4-methylpiperazin-1-yl)methyl)phenyl)-1H-pyrrolo[2,3-b]pyridin-3-yl)-2-methylphenyl)acrylamide]"
≤ 0.1 µM,≤ 0.1 µM,≤ 0.1 µM,0.1 to 0.5 µM,≤ 0.1 µM,>99 % remaining after 50 min,≤ 0.1 µM,0.1 to 0.5 µM,≤ 0.1 µM,"C=CC(=O)Nc1cc(-c2c(-c3ccc(N4CCN(C)CC4)cc3)[nH]c3nccc(Cl)c23)ccc1C [Example 2, N-(5-(4-chloro-2-(4-(4-methylpiperazin-1-yl)phenyl)-1H-pyrrolo[2,3-b]pyridin-3-yl)-2-methylphenyl)acrylamide]"
≤ 0.1 µM,0.1 to 0.5 µM,0.1 to 0.5 µM,0.1 to 0.5 µM,≤ 0.1 µM,>99 % remaining after 50 min,≤ 0.1 µM,0.1 to 0.5 µM,≤ 0.1 µM,"C=CC(=O)Nc1cc(-c2c(-c3ccc(OCCCN4CCN(CC)CC4)cc3)[nH]c3nccc(Cl)c23)ccc1C [Example 23, N-(5-(4-chloro-2-(4-(3-(4-ethylpiperazin-1-yl)propoxy)phenyl)-1H-pyrrolo[2,3-b]pyridin-3-yl)-2-methylphenyl)acrylamide]"
≤ 0.1 µM,0.1 to 0.5 µM,0.1 to 0.5 µM,0.1 to 0.5 µM,≤ 0.1 µM,>99 % remaining after 50 min,≤ 0.1 µM,0.5 to 1 µM,≤ 0.1 µM,"C=CC(=O)Nc1cc(-c2c(-c3cccc(OCCCN4CCN(CC)CC4)c3)[nH]c3nccc(Cl)c23)ccc1C [Example 25, N-(5-(4-chloro-2-(3-(3-(4-ethylpiperazin-1-yl)propoxy)phenyl)-1H-pyrrolo[2,3-b]pyridin-3-yl)-2-methylphenyl)acrylamide]"
≤ 0.1 µM,0.5 to 1 µM,0.5 to 1 µM,1 to 100 µM,≤ 0.1 µM,>99 % remaining after 50 min,≤ 0.1 µM,1 to 100 µM,≤ 0.1 µM,"C=CC(=O)N1CCc2ccc(-c3c(-c4ccc(C5CCN(C)CC5)cc4)[nH]c4nccc(Cl)c34)cc21 [Example 55, 1-(6-(4-Chloro-2-(4-(1-methylpiperidin-4-yl)phenyl)-1H-pyrrolo[2,3-b]pyridin-3-yl)indolin-1-yl)prop-2-en-1-one 2,2,2-trifluoroacetate]"
≤ 0.1 µM,0.1 to 0.5 µM,0.1 to 0.5 µM,0.5 to 1 µM,≤ 0.1 µM,>99 % remaining after 50 min,0.1 to 0.5 µM,0.5 to 1 µM,≤ 0.1 µM,"C=CC(=O)N1CCc2ccc(-c3c(-c4ccc(CN5CCN(C)CC5)cc4)[nH]c4nccc(Cl)c34)cc21 [Example 60, 1-(6-(4-chloro-2-(4-((4-methylpiperazin-1-yl)methyl)phenyl)-1H-pyrrolo[2,3-b]pyridin-3-yl)indolin-1-yl)prop-2-en-1-one]"
≤ 0.1 µM,0.1 to 0.5 µM,0.1 to 0.5 µM,0.1 to 0.5 µM,≤ 0.1 µM,>99 % remaining after 50 min,≤ 0.1 µM,0.1 to 0.5 µM,≤ 0.1 µM,"C=CC(=O)Nc1cc(-c2c(-c3cccc(OCCN(C)C)c3)[nH]c3nccc(Cl)c23)ccc1C [Example 28, N-(5-(4-chloro-2-(3-(2-(dimethylamino)ethoxy)phenyl)-1H-pyrrolo[2,3-b]pyridin-3-yl)-2-methylphenyl)acrylamide]"
≤ 0.1 µM,0.1 to 0.5 µM,0.1 to 0.5 µM,0.1 to 0.5 µM,≤ 0.1 µM,90 % remaining after 50 min,≤ 0.1 µM,0.1 to 0.5 µM,≤ 0.1 µM,"C=CC(=O)Nc1cc(-c2c(-c3cccc(N4CCN(C)CC4)c3)[nH]c3nccc(Cl)c23)ccc1C [Example 17, N-(5-(4-chloro-2-(3-(4-methylpiperazin-1-yl)phenyl)-1H-pyrrolo[2,3-b]pyridin-3-yl)-2-methylphenyl)acrylamide]"
≤ 0.1 µM,0.1 to 0.5 µM,0.1 to 0.5 µM,0.1 to 0.5 µM,≤ 0.1 µM,–,≤ 0.1 µM,0.1 to 0.5 µM,≤ 0.1 µM,"C=CC(=O)Nc1cc(-c2c(-c3cccc(C(=O)NC4CCN(Cc5ccccc5)CC4)c3)[nH]c3nccc(Cl)c23)ccc1C [Example 48, 3-(3-(3-acrylamido-4-methylphenyl)-4-chloro-1H-pyrrolo[2,3-b]pyridin-2-yl)-N-(1-benzylpiperidin-4-yl)benzamide]"
≤ 0.1 µM,0.1 to 0.5 µM,0.1 to 0.5 µM,0.5 to 1 µM,≤ 0.1 µM,94 % remaining after 50 min,0.1 to 0.5 µM,–,≤ 0.1 µM,"C=CC(=O)N1CCOc2ccc(-c3c(-c4ccc(N(C)CCN(C)C)cc4)[nH]c4nccc(Cl)c34)cc21 [Example 84, 1-(6-(4-chloro-2-(4-((2-(dimethylamino)ethyl)(methyl)amino)phenyl)-1H-pyrrolo[2,3-b]pyridin-3-yl)-2H-benzo[b][1,4]oxazin-4(3H)-yl)prop-2-en-1-one]"
